Data set [1] relates to somatostain (SS). The following applies: pigs, poultry, fowls, goats, rabbits and fish; cited from earlier work.
For data set [2] the following is noted: exposed to air or at an elevated temperature; cited from earlier work.
Data set [3] has as its system black & white dairy cows. Description: Experiment 3: three-stage feeding trial, black & white dairy cows. In kind it is in vivo. The conditions noted are these: control group, 40 g per cow every other day, versus 20 g daily (2.89 vs 2.73 wt %). The text has this:
Thirty-two black & white dairy cows were used in the experiment and were randomly divided into four groups, namely test Groups I to III, and a control group. Each group had eight cows. […] There were three stages in the experiment. In the first stage of the experiment, the feed for the test Groups I to III of cows was mixed with the composition such that each cow in the three test groups was fed with 20 g, 30 g and 40 g of the composition respectively daily. No cysteamine-containing composition was mixed in the feed for the control group of cows. The first stage of the experiment lasted for thirty-seven days and was preceded by a three-day adaptation period. During the second stage of the experiment, the composition was not added to the feed for the three test groups of cows. However, each cow in the control group was fed with 20 g of the composition daily via its feed. The second stage of the experiment lasted for seven days. During the third stage of the experiment, the three test groups of cows were fed with the feed mixed with the composition such that 20 g of the composition was taken by each cow daily. Each cow in the control group was fed with 40 g of the composition every other day via the feed. The third stage of the experiment lasted for seven days. The daily milk yield, milk fat content, milk protein content and somatic cells in milk were measured and recorded. […]

Data set [4] concerns animals. The conditions noted are these: ingesting cysteamine directly; cited from earlier work.

`NCCS` [cysteamine]: the “effect on somatostain (SS)” value in data set [1] is reported as “can deplete somatostain (SS)”. Also, in data set [2], the oxidation entry is listed as “readily oxidized”. Further, in data set [3], the “increase of milk protein content” value came to 5.86%. For the same molecule, the gastro side effects result in data set [4] is reported as “will cause undesirable gastro side effects”.

Source of the values: patent US20050027015A1 (priority 2001, published 2005).
